ChEMBL document CHEMBL4507261, “Data for DCP probe A-192621” (2021)

Legend:
[1] = target: Inhibitor of nuclear factor kappa-B kinase subunit epsilon (Homo sapiens) (UniProt Q14164); conditions: Compound concentration 1000.0 nM
[2] = target: Mitogen-activated protein kinase kinase kinase 6 (Homo sapiens) (UniProt O95382); conditions: Compound concentration 1000.0 nM
[3] = target: Macrophage colony-stimulating factor 1 receptor (Homo sapiens) (UniProt P07333); conditions: Compound concentration 1000.0 nM
[4] = target: Casein kinase II subunit alpha' (Homo sapiens) (UniProt P19784); conditions: Compound concentration 1000.0 nM
[5] = target: Dual specificity tyrosine-phosphorylation-regulated kinase 1B (Homo sapiens) (UniProt Q9Y463); conditions: Compound concentration 1000.0 nM
[6] = target: Calcium/calmodulin-dependent protein kinase type II subunit beta (Homo sapiens) (UniProt Q13554); conditions: Compound concentration 1000.0 nM
[7] = target: Serine/threonine-protein kinase 38-like (Homo sapiens) (UniProt Q9Y2H1); conditions: Compound concentration 1000.0 nM
[8] = tested on: Phosphatidylinositol 4,5-bisphosphate 3-kinase catalytic subunit alpha isoform (Homo sapiens), P42336 [M1043I]; conditions: Compound concentration 1000.0 nM
[9] = target: Tyrosine-protein kinase receptor TYRO3 (Homo sapiens) (UniProt Q06418); conditions: Compound concentration 1000.0 nM
[10] = target: Ephrin type-B receptor 4 (Homo sapiens) (UniProt P54760); conditions: Compound concentration 1000.0 nM
[11] = tested on: Tyrosine-protein kinase ABL1 (Homo sapiens), P00519 [T315I]; conditions: Compound concentration 1000.0 nM
[12] = target: Rho-associated protein kinase 2 (Homo sapiens) (UniProt O75116); conditions: Compound concentration 1000.0 nM
[13] = target: Serine/threonine-protein kinase Nek9 (Homo sapiens) (UniProt Q8TD19); conditions: Compound concentration 1000.0 nM
[14] = tested on: Tyrosine-protein kinase ABL1 (Homo sapiens), P00519 [F317I]; conditions: Compound concentration 1000.0 nM
[15] = target: Glutamate NMDA receptor (Rattus norvegicus) (UniProt P35439+Q00959+Q00960+Q00961+Q62645+Q8VHN2+Q9R1M7); assay: PCP Eurofins-Cerep binding assay; type: protein-complex assay; parameters: ligand concentration 10 nM; conditions: filed as antagonist, Compound concentration 10.0 uM
[16] = target: Wee1-like protein kinase (Homo sapiens) (UniProt P30291); conditions: Compound concentration 1000.0 nM
[17] = target: Bone morphogenetic protein receptor type-2 (Homo sapiens) (UniProt Q13873); conditions: Compound concentration 1000.0 nM
[18] = target: Casein kinase I isoform epsilon (Homo sapiens) (UniProt P49674); conditions: Compound concentration 1000.0 nM
[19] = target: Serine/threonine-protein kinase 16 (Homo sapiens) (UniProt O75716); conditions: Compound concentration 1000.0 nM
[20] = tested on: Phosphatidylinositol 4,5-bisphosphate 3-kinase catalytic subunit alpha isoform (Homo sapiens), P42336 [E542K]; conditions: Compound concentration 1000.0 nM
Endothelin-1 receptor = target: T1, Endothelin-1 receptor (Homo sapiens, UniProt P25101); assay: Eurofins cellular functional assay - Antagonist (EDNRA)
T1 sequence (P25101 whole entry): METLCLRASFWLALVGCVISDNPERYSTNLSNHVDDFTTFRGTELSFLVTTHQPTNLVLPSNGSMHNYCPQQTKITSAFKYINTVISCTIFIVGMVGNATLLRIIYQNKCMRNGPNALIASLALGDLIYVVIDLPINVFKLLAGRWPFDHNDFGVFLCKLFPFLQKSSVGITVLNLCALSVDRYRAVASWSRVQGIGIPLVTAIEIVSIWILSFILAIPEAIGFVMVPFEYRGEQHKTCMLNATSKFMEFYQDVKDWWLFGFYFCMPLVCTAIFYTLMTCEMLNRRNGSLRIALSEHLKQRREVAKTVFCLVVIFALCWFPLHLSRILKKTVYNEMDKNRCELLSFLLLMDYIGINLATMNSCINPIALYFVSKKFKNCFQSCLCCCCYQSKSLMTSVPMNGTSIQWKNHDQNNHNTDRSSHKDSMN

[21] = target: Serine/threonine-protein kinase ULK1 (Homo sapiens) (UniProt O75385); conditions: Compound concentration 1000.0 nM
[22] = target: Serine/threonine-protein kinase 25 (Homo sapiens) (UniProt O00506); conditions: Compound concentration 1000.0 nM
[23] = tested on: Phosphatidylinositol 4,5-bisphosphate 3-kinase catalytic subunit alpha isoform (Homo sapiens), P42336 [Q546K]; conditions: Compound concentration 1000.0 nM
[24] = target: Insulin receptor-related protein (Homo sapiens) (UniProt P14616); conditions: Compound concentration 1000.0 nM
[25] = target: Serine/threonine-protein kinase ULK3 (Homo sapiens) (UniProt Q6PHR2); conditions: Compound concentration 1000.0 nM
[26] = target: Inhibitor of nuclear factor kappa-B kinase subunit beta (Homo sapiens) (UniProt O14920); conditions: Compound concentration 1000.0 nM
[27] = target: Melatonin receptor type 1B (Homo sapiens) (UniProt P49286); assay: MT2 (ML1B) (h) Eurofins-Cerep binding assay; parameters: ligand concentration 0.05 nM; conditions: filed as agonist, Compound concentration 10.0 uM
[28] = target: Tyrosine-protein kinase HCK (Homo sapiens) (UniProt P08631); conditions: Compound concentration 1000.0 nM
[29] = target: Tyrosine-protein kinase JAK1 (Homo sapiens) (UniProt P23458); conditions: Compound concentration 1000.0 nM
[30] = target: T2, Muscarinic acetylcholine receptor M5 (Homo sapiens) (UniProt P08912); assay: M5 (h) Eurofins-Cerep binding assay; parameters: ligand concentration 0.3 nM; conditions: filed as antagonist, Compound concentration 10.0 uM
T2 sequence (whole entry): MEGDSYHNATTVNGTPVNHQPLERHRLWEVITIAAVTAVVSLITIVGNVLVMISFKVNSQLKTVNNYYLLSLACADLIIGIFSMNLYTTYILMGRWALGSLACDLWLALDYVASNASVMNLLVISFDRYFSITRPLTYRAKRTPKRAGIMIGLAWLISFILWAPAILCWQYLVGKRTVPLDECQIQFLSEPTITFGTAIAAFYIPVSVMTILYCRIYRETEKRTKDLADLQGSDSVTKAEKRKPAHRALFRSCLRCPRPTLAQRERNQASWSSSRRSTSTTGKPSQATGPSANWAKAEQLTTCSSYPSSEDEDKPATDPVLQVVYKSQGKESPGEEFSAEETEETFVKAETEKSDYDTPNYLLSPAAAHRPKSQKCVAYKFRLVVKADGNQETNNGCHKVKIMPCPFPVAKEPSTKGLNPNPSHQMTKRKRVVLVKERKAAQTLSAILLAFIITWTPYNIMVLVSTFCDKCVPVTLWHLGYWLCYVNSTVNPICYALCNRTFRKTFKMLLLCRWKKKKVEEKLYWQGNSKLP

Sequence of Calcium/calmodulin-dependent protein kinase type II subunit beta (Homo sapiens) (Q13554 whole entry): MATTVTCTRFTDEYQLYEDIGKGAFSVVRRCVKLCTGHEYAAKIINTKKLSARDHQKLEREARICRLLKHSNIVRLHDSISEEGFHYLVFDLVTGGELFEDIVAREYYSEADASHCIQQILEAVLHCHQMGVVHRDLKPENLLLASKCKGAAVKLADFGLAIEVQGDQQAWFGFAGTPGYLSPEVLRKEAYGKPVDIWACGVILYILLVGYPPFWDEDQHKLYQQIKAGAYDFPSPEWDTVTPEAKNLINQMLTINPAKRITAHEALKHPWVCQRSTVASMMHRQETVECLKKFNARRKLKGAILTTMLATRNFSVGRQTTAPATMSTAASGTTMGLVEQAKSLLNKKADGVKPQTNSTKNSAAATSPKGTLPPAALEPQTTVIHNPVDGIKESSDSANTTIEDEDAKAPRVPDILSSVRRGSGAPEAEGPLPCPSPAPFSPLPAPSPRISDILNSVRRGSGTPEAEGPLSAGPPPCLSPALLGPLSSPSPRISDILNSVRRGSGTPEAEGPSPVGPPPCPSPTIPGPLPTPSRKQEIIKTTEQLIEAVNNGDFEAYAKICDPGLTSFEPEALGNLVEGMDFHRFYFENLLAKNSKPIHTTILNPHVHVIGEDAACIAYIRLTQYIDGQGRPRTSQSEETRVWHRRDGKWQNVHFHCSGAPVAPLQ
Sequence of Inhibitor of nuclear factor kappa-B kinase subunit beta (Homo sapiens) (O14920 whole entry): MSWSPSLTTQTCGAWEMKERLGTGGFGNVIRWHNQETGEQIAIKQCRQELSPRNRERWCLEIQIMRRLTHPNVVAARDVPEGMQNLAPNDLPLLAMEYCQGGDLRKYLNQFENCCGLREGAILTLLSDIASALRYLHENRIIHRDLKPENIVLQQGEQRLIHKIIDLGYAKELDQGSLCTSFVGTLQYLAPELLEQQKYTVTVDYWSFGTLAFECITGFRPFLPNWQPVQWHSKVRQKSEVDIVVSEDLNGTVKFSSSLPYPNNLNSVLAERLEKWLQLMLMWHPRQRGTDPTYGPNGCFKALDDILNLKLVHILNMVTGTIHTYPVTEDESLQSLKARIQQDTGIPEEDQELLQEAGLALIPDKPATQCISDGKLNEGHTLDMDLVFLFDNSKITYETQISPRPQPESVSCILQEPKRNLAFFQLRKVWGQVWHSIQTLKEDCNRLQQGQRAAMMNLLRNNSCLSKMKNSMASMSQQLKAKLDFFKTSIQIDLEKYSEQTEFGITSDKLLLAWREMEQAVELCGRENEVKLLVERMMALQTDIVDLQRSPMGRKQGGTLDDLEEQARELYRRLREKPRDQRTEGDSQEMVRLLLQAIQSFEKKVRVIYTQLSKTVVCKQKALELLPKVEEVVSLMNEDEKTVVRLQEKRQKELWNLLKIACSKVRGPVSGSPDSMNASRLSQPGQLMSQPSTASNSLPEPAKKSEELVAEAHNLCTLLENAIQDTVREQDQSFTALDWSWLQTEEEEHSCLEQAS
Sequence of Serine/threonine-protein kinase 38-like (Homo sapiens) (Q9Y2H1 2-464 limits assumed): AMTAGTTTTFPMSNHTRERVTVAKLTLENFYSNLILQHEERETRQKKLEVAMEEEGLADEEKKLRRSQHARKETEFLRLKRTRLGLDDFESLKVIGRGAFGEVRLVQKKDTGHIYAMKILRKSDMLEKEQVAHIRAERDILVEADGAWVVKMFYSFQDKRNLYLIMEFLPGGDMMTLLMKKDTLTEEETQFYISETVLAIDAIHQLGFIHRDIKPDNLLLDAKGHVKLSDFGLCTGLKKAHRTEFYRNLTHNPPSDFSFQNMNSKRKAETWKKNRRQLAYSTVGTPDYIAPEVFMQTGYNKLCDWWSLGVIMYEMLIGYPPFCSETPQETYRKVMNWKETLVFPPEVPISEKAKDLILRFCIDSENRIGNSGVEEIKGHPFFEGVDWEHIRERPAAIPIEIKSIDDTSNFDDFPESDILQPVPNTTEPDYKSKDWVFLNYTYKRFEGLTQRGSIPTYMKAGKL
Sequence of Serine/threonine-protein kinase 16 (Homo sapiens) (O75716 whole entry, canonical isoform): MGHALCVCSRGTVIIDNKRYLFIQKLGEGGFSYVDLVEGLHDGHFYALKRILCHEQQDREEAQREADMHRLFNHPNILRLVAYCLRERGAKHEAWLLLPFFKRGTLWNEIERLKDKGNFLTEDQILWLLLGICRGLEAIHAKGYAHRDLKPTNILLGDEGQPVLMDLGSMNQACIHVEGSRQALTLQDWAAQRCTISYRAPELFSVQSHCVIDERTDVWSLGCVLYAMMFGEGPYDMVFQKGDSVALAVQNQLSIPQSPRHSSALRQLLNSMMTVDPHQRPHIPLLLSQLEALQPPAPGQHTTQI
Sequence of Macrophage colony-stimulating factor 1 receptor (Homo sapiens) (P07333 whole entry): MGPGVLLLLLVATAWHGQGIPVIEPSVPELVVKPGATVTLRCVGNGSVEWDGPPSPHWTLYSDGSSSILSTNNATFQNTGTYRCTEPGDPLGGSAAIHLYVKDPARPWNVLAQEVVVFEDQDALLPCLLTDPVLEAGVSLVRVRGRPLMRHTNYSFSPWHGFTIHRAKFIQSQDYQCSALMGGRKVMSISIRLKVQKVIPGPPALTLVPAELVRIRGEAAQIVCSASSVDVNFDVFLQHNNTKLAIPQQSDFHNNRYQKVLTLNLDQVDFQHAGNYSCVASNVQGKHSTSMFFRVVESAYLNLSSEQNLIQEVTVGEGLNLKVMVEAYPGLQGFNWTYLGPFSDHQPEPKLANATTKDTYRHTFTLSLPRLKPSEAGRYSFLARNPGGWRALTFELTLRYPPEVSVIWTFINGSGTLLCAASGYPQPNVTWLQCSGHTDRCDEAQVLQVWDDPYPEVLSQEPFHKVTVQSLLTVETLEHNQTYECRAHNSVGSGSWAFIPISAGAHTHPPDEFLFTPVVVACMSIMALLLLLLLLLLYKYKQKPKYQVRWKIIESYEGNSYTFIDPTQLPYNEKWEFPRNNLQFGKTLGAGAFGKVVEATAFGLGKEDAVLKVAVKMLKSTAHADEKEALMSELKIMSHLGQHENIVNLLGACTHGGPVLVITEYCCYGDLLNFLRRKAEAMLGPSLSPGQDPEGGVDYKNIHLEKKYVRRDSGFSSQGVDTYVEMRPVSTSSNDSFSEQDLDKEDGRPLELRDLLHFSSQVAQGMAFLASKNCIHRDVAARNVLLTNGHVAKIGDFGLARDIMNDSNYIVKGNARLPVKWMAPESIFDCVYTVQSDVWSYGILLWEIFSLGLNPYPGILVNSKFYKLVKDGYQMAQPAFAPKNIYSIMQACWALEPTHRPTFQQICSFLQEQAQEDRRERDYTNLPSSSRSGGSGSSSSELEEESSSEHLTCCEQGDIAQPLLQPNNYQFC
Sequence of Bone morphogenetic protein receptor type-2 (Homo sapiens) (Q13873 whole entry, canonical isoform): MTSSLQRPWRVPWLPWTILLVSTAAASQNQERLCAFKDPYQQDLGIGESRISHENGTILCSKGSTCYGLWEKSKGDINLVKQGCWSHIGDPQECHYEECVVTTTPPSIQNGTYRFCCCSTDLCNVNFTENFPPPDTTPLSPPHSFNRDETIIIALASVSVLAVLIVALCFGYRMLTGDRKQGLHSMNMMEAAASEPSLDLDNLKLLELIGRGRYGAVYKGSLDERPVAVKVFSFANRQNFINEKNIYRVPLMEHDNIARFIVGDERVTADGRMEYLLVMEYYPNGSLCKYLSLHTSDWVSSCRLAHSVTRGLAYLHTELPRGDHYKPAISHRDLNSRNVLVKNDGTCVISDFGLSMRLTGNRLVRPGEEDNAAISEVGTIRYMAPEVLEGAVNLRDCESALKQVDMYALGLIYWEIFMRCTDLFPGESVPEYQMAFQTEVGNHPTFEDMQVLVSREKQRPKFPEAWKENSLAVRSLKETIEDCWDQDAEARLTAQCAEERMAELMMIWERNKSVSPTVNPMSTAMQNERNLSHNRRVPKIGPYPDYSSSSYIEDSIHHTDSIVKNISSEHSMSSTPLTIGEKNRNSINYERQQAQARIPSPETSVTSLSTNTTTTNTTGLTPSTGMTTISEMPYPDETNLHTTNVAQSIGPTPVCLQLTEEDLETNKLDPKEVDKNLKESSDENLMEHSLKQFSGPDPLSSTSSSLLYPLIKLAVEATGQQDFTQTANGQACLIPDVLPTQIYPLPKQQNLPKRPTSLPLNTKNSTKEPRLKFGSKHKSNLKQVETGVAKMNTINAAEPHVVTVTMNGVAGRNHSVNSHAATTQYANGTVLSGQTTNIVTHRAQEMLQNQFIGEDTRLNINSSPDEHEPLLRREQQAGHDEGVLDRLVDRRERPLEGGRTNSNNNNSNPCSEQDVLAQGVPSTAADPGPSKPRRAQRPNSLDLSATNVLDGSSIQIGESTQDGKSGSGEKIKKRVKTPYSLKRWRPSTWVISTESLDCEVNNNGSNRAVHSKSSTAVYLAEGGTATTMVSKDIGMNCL
Sequence of Serine/threonine-protein kinase ULK3 (Homo sapiens) (Q6PHR2 whole entry): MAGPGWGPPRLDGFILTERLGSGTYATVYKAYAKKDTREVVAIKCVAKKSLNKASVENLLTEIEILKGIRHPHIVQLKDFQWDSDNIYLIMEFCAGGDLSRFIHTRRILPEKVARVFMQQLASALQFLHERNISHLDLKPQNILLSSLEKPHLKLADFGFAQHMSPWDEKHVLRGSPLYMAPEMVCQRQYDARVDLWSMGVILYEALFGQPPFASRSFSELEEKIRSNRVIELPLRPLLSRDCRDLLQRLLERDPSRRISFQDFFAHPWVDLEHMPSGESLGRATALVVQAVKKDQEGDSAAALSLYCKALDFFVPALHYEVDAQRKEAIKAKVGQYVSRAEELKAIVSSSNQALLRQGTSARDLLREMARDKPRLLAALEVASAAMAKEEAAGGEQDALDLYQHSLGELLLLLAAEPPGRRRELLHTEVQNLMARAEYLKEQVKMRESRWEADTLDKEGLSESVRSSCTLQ
Sequence of Melatonin receptor type 1B (Homo sapiens) (P49286 whole entry): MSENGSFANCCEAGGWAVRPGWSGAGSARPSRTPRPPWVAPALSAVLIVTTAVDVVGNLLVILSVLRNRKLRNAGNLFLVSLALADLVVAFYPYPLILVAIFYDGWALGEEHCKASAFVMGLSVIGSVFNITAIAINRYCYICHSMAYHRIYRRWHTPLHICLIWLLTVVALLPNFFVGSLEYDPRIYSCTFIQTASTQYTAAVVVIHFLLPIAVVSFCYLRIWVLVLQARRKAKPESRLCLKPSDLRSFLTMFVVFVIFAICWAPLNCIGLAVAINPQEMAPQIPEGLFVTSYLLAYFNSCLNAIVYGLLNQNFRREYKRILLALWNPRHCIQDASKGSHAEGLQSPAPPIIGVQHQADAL

Q: Which results are given for CCCOc1ccc([C@H]2[C@H](C(=O)O)[C@@H](c3ccc4c(c3)OCO4)CN2CC(=O)Nc2c(CC)cccc2CC)cc1 [A-192621]?
A: residual activity [1]: 68%; residual activity [2]: 65%; residual activity [3]: 61%; residual activity [4]: 87%; residual activity [5]: 100%; residual activity [6]: 99%; residual activity [7]: 88%; residual activity [8]: 91%; residual activity [9]: 100%; residual activity [10]: 100%; residual activity [11]: 77%; residual activity [12]: 69%; residual activity [13]: 95%; residual activity [14]: 71%; % Inhibition of Control Specific Binding (Mean n=2) [15]: -1.5%; residual activity [16]: 93%; residual activity [17]: 53%; residual activity [18]: 100%; residual activity [19]: 72%; residual activity [20]: 75%; IC50 (Endothelin-1 receptor): 3.6 µM (not active); residual activity [21]: 68%; residual activity [22]: 100%; residual activity [23]: 69%; residual activity [24]: 94%; residual activity [25]: 72%; residual activity [26]: 77%; % Inhibition of Control Specific Binding (Mean n=2) [27]: 2.4%; residual activity [28]: 92%; residual activity [29]: 94%; % Inhibition of Control Specific Binding (Mean n=2) [30]: 10%

Q: How did the residual activity [1] turn out when CCCOc1ccc([C@@H]2[C@@H](C(=O)O)[C@H](c3ccc4c(c3)OCO4)CN2CC(=O)Nc2c(CC)cccc2CC)cc1 [A-1806262] was run?
A: 85%

Q: And the residual activity [2]?
A: 77%

Q: What about the residual activity [3] of the same molecule?
A: 90%

Q: What about the residual activity [4] of the same molecule?
A: 83%

Q: And the residual activity [5]?
A: 99%

Q: What about the residual activity [6] of the same molecule?
A: 88%

Q: What about the residual activity [7] of the same molecule?
A: 100%

Q: And the residual activity [8]?
A: 91%

Q: What about the residual activity [9] of the same molecule?
A: 94%

Q: And the residual activity [10]?
A: 96%

Q: What about the residual activity [11] of the same molecule?
A: 82%

Q: And the residual activity [12]?
A: 84%

Q: And the residual activity [13]?
A: 100%

Q: And the residual activity [14]?
A: 83%

Q: What about the % Inhibition of Control Specific Binding (Mean n=2) [15] of the same molecule?
A: 0.2%

Q: And the residual activity [16]?
A: 95%

Q: And the residual activity [17]?
A: 69%

Q: And the residual activity [18]?
A: 98%

Q: And the residual activity [19]?
A: 87%

Q: And the residual activity [20]?
A: 81%

Q: And the IC50 (Endothelin-1 receptor)?
A: 1.6 µM (not active)

Q: What about the residual activity [21] of the same molecule?
A: 77%

Q: What about the residual activity [22] of the same molecule?
A: 100%

Q: What about the residual activity [23] of the same molecule?
A: 80%

Q: What about the residual activity [24] of the same molecule?
A: 100%

Q: And the residual activity [25]?
A: 83%

Q: What about the residual activity [26] of the same molecule?
A: 94%

Q: And the % Inhibition of Control Specific Binding (Mean n=2) [27]?
A: -3.1%

Q: And the residual activity [28]?
A: 92%

Q: And the residual activity [29]?
A: 88%

Q: What about the % Inhibition of Control Specific Binding (Mean n=2) [30] of the same molecule?
A: 0.9%
